Literature values in patent US6602892B1, “Methods for nicotine replacement dosage determination” (priority 1993, dated 2003).

Conditions: in vivo

SMILES | half life
CN1C(=O)CC[C@H]1c1cccnc1 [cotinine] | about 20 hours
CN1CCCC1c1cccnc1 (centres unmarked) [nicotine] | two
